Consider 1 compound from patent US20260133203A1, “DETECTION OF FUMARATE-DERIVED MODIFICATION IN A TEST SAMPLE” (UNIVERSITY OF SOUTH CAROLINA, priority 2017, published 2026).

SMILES strings stand for the structures. Counter-ions that a name gives are not always drawn.

The test concerns neurons and astrocytes. Put plainly: LC-MS/MS identification of succinated proteins, neurons and astrocytes overall. Type of test: cell-based. The settings on record: both neurons and astrocytes. The method, then: For the identification of succination sites, 60 μg of protein from primary neurons, 200 μg of protein from primary astrocytes or 120 μg of protein from differentiated N1E-115 neurons were resolved by SDS-PAGE, and the gels were stained with Coomassie Brilliant Blue. After de-staining, all protein bands were excised from the gels and subjected to in-gel digestion with trypsin. Briefly, proteins were reduced with 10 mM dithiothreitol and alkylated with 170 mM 4-vinylpyridine. Trypsin digestion was carried out overnight at 37° C. in the presence of 1.5 ng sequence grade modified trypsin (Promega®, Madison, WI) in 50 mM ammonium bicarbonate. After gel extraction, the peptides were re-suspended in 1% acetic acid and analyzed on a DionexTM […] system (Thermo ScientificTM, Rockford, IL) coupled to an Orbitrap Velos ProTM mass spectrometer (Thermo ScientificTM, Rockford, IL). The LC solvents were 2% acetonitrile/0.1% formic acid (Solvent A) and 80% acetonitrile/0.1% formic acid (Solvent B). […] The data-dependent acquisition (DDA) data were analyzed using Proteome DiscovererTM 1.4 software with SEQUEST search engine against the uniprot_ref_mouse database (2014-10-03 version, 52,474 proteins) or uniprot_ref_rat database (2011-5-11 version, 39765 proteins) with Xcorr>1 validation (+2) and an allowance for 2 missed cleavages. […]

With `COC(=O)/C=C/C(=O)OC` [DMF, dimethyl fumarate], the “number of distinct protein subunits directly modified by either DMF or MMF” value is reported as 24.
